These results are taken from patent US10961279B2 (priority 2011, dated 2021).

The assay deals with CTLL-2 cells. The format is cell-based.

DRGWGNGCGLFGKG [monomeric peptide]: the “inhibition of proliferation of CTLL-2 cells” value was “no effect”.

GLFGAIAGFIENGWEGCGGEKEKEK [wt INF]: the “effect of the dimeric peptides on proliferation of CTLL-2 cells (synthesis of new DNA)” value was “inhibits synthesis of new DNA”.

As for DRGWGNGCGDFGKG [FLV FUS non-IS], the “effect of the dimeric peptides on proliferation of CTLL-2 cells” value is reported as “non-immune suppressive”.

As to PALSTGLIHLHQNIVDVQCGGEKEKEK, the “inhibition of proliferation of T-cells” value was “inhibits proliferation of T-cells in a concentration dependent manner”.
